According to patent EP4349409A1, “COMPOUNDS FOR THE MANAGEMENT OF CELL STEMNESS AND INVASION IN CANCER AND RELATED DISEASES” (Instituto Biomar S.A., priority 2022, dated 2024):

How the values were obtained:
P1-TP73 promoter = assay: P1-p73-Fluc-DsRed reporter screening of natural compounds in U373 cells; type: cell-based, human; conditions: U373, 8 µg/ml, 48 h after treatment
Procedure: The conventional GB cell line U373 was used to perform a low-throughput chemical screen to identify P1-TP73-promoter regulators from a panel of 51 natural compounds with novel chemical structures (BMT-1 to BMT-51). Cells were seeded on black microplates and 24 h later they were transfected with 1 µg of P1-p73-Fluc-DsRed plasmid using Lipofectamine 3000™ reagent (ThermoFisher) following the manufacturer's instructions. Six hours later, transfected cells were treated either with 8 µg/ml of any of the tested compounds or with the drugs used as first line glioblastoma treatment: the methylating agent temozolomide (TMZ) and the chloroethyl-derivative of nitrosourea carmustine (BCNU), or equivalent volumes of DMSO. […] The compound BMT18 was also found to have autofluorescence.

G144 R500 = assay: MTT assay, TMZ-resistant clone G144 R500; type: cell-based; conditions: Homo sapiens, 72 hours
Source text: (§1) While the first line therapy of gliomas has proven its effectiveness and improved clinical outcomes, acquired chemoresistance to alkylating agents has been identified as a major cause of treatment failure (Sarkaria et al., 2008). In a murine model of GB, long-term treatment with subtoxic TMZ doses enriched the side population of cancer stem cells, increasing the tumor aggressiveness (Bleau et al., 2009). Thus, we generated TMZ-resistant G144-clones that were selected upon treatment with TMZ either at 500 µM or 700 µM for several months (R500 and R700, respectively). The obtained clones maintained CD133 stem marker expression (Figure 9A). We then analyzed BMT9 dose-dependent effect on cell viability, by MTT assay, comparing the resistant clones to parental cells.

CD133 = CD133 stemness marker flow cytometry in G144 cells; type: cell-based, human; conditions: G144, 48 hours; BMT9 4.5-9 µM, TMZ 500 µM, BCNU 250 µM
Procedure: Next, we asked if BMT9 treatment at IC50 could specifically affect the stemness of GNSC. To address this point, cells were seeded and treated 24 h later with BMT9 (4.5-9 µM), TMZ (500 µM) or BCNU (250 µM). After 48 hours of treatment, cells were collected and stained with a CD133 (stemness marker) antibody (AC133, Milyenty Biotec) or the corresponding Ig-isotype control. Flow cytometric analysis were performed with the previously mentioned equipment.

G144 cells [1] = assay: Proliferation rate analysis by p-His-3 immunostaining in G144 cells; type: cell-based, human; conditions: G144, 4.5 µM, 72 h (data not shown)
Source text: It is noteworthy that G144 cells proliferate very slowly and, at maintenance culture conditions, about 90% of the cells are in G1 phase of the cell cycle (data not shown).

G144 = assay: MTT-based cytotoxicity assay, G144; type: cell-based, human; conditions: for IC50: G144, MTT, 72 h
Procedure: A dose-response analysis of BMT9 (concentrations ranging from 4.5 µM-18 µM), BCNU (from 150 µM-500 µM) and TMZ (350 µM-700 µM) was performed in two conventional glioblastoma cell lines (T98G, U373) and the GNS cell line G144 by MTT-based cytotoxicity assays (Figure 5A-D). Cells were seeded on p96-well plates and treated with the different compounds for 72 h. Then, the MTT reagent (3-(4,5-Dimethyl-2-thiazolyl)-2,5-diphenyl-2H-tetrazolium bromide diluted in PBS to a concentration of 1mg/ml), was added to each well to a final concentration of 0.33mg/ml, and incubated for 3 h at 37°C. After that, the media was removed, and formazan crystals were solubilized with DMSO. Absorbance was measured at 560 nm using a "Synergy HT" plate reader (Biotek). In the graphs, the Y axis represents the percentage of cell viability relative to non-treated cells. The IC50, when reached are marked by a rectangle. DMSO treatment had no effect on cell viability.
Previous studies have reported that the molecular signature of the GNSC G144 cell line corresponds to a 'proneural' subtype of GB with NSC features (Pollard et al., 2009; Danovi et al., 2013). Thus, to test BMT9 specificity we compared cellular viability when treating CD133-positive cells (either GNSCs or normal human fetal neural stem cells-NSC) versus CD133-negative human embryonic fibroblast (HEFs) (Figure 8A). MTT-based cytotoxicity assay (Figure 7B-D) were performed as previously described.
as §1

G179 = assay: Scratch (wound healing) assay, G179; type: cell-based; conditions: G179, 4.5µM, 24 h
Procedure: The effect of BMT9 in cell migration was evaluated using scratch assays, also known as wound healing assays. Cells were seeded in culture inserts for wound healing assays (Ibidi) at a cell density of 35,000 cells/cm^2; 24 h later the insert was removed to create the wound, and fresh medium was added with the corresponding treatment. Microscopy images were acquired at the time of treatment and 24 h later, using a Leica DMI3000 phase contrast microscope. Analysis was performed using the ImageJ software (Schindelin et al., 2012) and the MRI wound healing tool plugin (Suarez-Arnedo et al., 2020). Cell-free area was measured at the two indicated time points and the wound closure percentage relative to the starting point was calculated for each well individually. This assay was performed in G144 and in G179 cells (Figure 10 B and C, respectively).

GNSCs = assay: Sphere-forming clonogenic assay of GNSCs; type: cell-based; conditions: 4.5 µM and 9 µM, sphere forming conditions (data not shown)
Procedure: To further investigate whether BMT9 reduced stemness potential of the GNSCs, we performed a sphere-forming clonogenic assay. Cells were seeded on sphere forming conditions, that is 40,000 cells/ml without laminin coating. Cells were treated with BMT9 at 4.5 µM and 9 µM 24 h after seeding.

G144 cells [2] = assay: 3D spheroid cell-invasion assay in Matrigel, G144; type: cell-based, human; conditions: 24 h
Procedure: A hallmark of glioblastoma cell infiltration through a 3D environment is the extension of long, thin polarized membrane extensions that explore and penetrate the surrounding environment. The 3D spheroid cell-invasion model consists in generating cell spheroids by suspension culture that are subsequently embedded in a 3D matrix. G144 cells were seeded on non-adherent conditions (without laminin coating) at a cell concentration of 40,000 cells/ml. After 8 days, spheres were embedded in a 2:1 mixture of Matrigel and growth media. Matrigel mix was let to polymerize at 37°C for 30 minutes, and then it was covered with growth media. Migration was monitored by phase-contrast microscopy for 24 h and the area of each sphere at the initial and final time points was measured using the ImageJ software, in order to calculate the ratio between both areas (Figure 10D, Y axis).

C=C1C2CCC(C)(C3COc4c(C)c(OC)c5c(c4C3O)C(O)OC5=O)C1CCC2(C)C (stereo not shown) [BMT9]
P1-TP73-promoter activity (fluorescence normalized to DMSO exposed cells) (P1-TP73 promoter): strongest and most reproducible repressive effect | pre-selection: modulatory effect of a 2-fold fluorescence increase or a 0.5-fold reduction (P1-TP73 promoter; direction per compound not given): pre-selected | IC50 (G144 R500): 4.5 to 9 µM | CD133 expression levels (Mean Fluorescence Intensity) (CD133): significantly reduced | percentage of CD133 positive cells (CD133): significantly reduced | percentage of cells in mitosis (G144 cells [1]): 0.1% | concentration as low as which still reduced viability (G144; G144, 72 h after treatment): 2.25 µM | IC50 (G144): 4.5 µM | cellular viability in long term culture (G144; GNSC (G144, CD133-positive), 1.125-4.5 µM): stronger effect against GNSC | IC50 (G144; Homo sapiens): < 4.5 µM | cell migration (wound closure) (G179): significantly impaired cell migration | sphere generation (GNSCs): reduce sphere generation in a dose dependent manner | invasion of cells within the matrix surrounding the spheres (G144 cells [2]): significantly impaired the invasion of cells
